# Measurements published in ChEMBL document CHEMBL5150017, “Mechanism of Action and Structure-Activity Relationship of α-Conotoxin Mr1.1 at the Human α9α10 Nicotinic Acetylcholine Receptor” (J Med Chem, 2022).
# The source made the active and inactive calls. No cut-off for these calls is given here. Positions of bridges follow the written chain, without caps; N, C: chain ends. Residues, ends and D or L forms follow the SMILES beside them.
# Assays:
# Assay type in all cases: cell-based
# Conditions in all cases: Oocyte
# [1] = biological target: T1, Neuronal acetylcholine receptor; alpha9/alpha10 (Homo sapiens) (UniProt Q9UGM1+Q9GZZ6); assay: Antagonist activity at human alpha9alpha10 nAChR expressed in Xenopus laevis oocytes assessed as inhibition of ACh-induced current amplitude at -80 mV holding potential at 10 uM by two-electrode voltage clamp method
# [2] = biological target: T1, Neuronal acetylcholine receptor; alpha9/alpha10 (Homo sapiens); assay: Antagonist activity at human alpha9alpha10 nAChR expressed in Xenopus laevis oocytes assessed as inhibition of ACh-induced current amplitude at -80 mV holding potential at 1 uM by two-electrode voltage clamp method
# [3] = biological target: T1, Neuronal acetylcholine receptor; alpha9/alpha10 (Homo sapiens); assay: Antagonist activity at human alpha9alpha10 nAChR expressed in Xenopus laevis oocytes assessed as inhibition of ACh-induced current amplitude at -80 mV holding potential at 100 nM by two-electrode voltage clamp method
Compound,inhibition [2],inhibition [3],further results
"CC[C@H](C)[C@@H]1NC(=O)[C@H](CC(=O)O)NC(=O)[C@@H]2CCCN2C(=O)[C@H](CC(N)=O)NC(=O)[C@H](CC(N)=O)NC(=O)[C@H](C(C)C)NC(=O)[C@H](CO)NC(=O)[C@@H]2CSSC[C@H](NC(=O)CN)C(=O)N[C@@H](CSSC[C@@H](C(N)=O)NC1=O)C(=O)N[C@@H](CO)C(=O)N[C@@H](C)C(=O)N1CCC[C@H]1C(=O)N[C@@H](C)C(=O)N2 (H-GCCSAPACSVNNPDIC-NH2; disulfide 2-8, 3-16)",–,–,inhibition [1]: 20%
"CC[C@H](C)[C@@H]1NC(=O)[C@H](CC(=O)O)NC(=O)[C@@H]2CCCN2C(=O)[C@H](CC(N)=O)NC(=O)[C@H](CC(N)=O)NC(=O)[C@H](C(C)C)NC(=O)[C@H](C)NC(=O)[C@@H]2CSSC[C@H](NC(=O)CN)C(=O)N[C@@H](CSSC[C@@H](C(N)=O)NC1=O)C(=O)N[C@@H](CO)C(=O)N[C@@H](Cc1cnc[nH]1)C(=O)N1CCC[C@H]1C(=O)N[C@@H](C)C(=O)N2 (H-GCCSHPACAVNNPDIC-NH2; disulfide 2-8, 3-16)",–,–,inhibition ([1]; filed as antagonist): Active
"CC[C@H](C)[C@@H]1NC(=O)[C@H](CCC(=O)O)NC(=O)[C@@H]2CCCN2C(=O)[C@H](CC(N)=O)NC(=O)[C@H](CC(N)=O)NC(=O)[C@H](C(C)C)NC(=O)[C@H](CO)NC(=O)[C@@H]2CSSC[C@H](NC(=O)CN)C(=O)N[C@@H](CSSC[C@@H](C(N)=O)NC1=O)C(=O)N[C@@H](CO)C(=O)N[C@@H](Cc1cnc[nH]1)C(=O)N1CCC[C@H]1C(=O)N[C@@H](C)C(=O)N2 (H-GCCSHPACSVNNPEIC-NH2; disulfide 2-8, 3-16)",20%,–,inhibition ([2]; filed as antagonist): 40%
"CC[C@H](C)[C@@H]1NC(=O)[C@H](CC(=O)O)NC(=O)[C@@H]2CCCN2C(=O)[C@H](CC(N)=O)NC(=O)[C@H](CC(N)=O)NC(=O)[C@H](Cc2ccc(O)cc2)NC(=O)[C@H](CO)NC(=O)[C@@H]2CSSC[C@H](NC(=O)CN)C(=O)N[C@@H](CSSC[C@@H](C(N)=O)NC1=O)C(=O)N[C@@H](CO)C(=O)N[C@@H](Cc1cnc[nH]1)C(=O)N1CCC[C@H]1C(=O)N[C@@H](C)C(=O)N2 (H-GCCSHPACSYNNPDIC-NH2; disulfide 2-8, 3-16)",20%,25%,–
"CC[C@H](C)[C@@H]1NC(=O)[C@H](CC(=O)O)NC(=O)[C@@H]2CCCN2C(=O)[C@H](CC(N)=O)NC(=O)[C@H](CC(N)=O)NC(=O)[C@H](CCCCN)NC(=O)[C@H](CO)NC(=O)[C@@H]2CSSC[C@H](NC(=O)CN)C(=O)N[C@@H](CSSC[C@@H](C(N)=O)NC1=O)C(=O)N[C@@H](CO)C(=O)N[C@@H](Cc1cnc[nH]1)C(=O)N1CCC[C@H]1C(=O)N[C@@H](C)C(=O)N2 (H-GCCSHPACSKNNPDIC-NH2; disulfide 2-8, 3-16)",–,< 5%,–
